“Also recorded” adds a separate entry of the source. Where two headings read alike, the source gives them in different places. One block for each compound: values may come before it.
What was measured:
clinical = settings: human, in vivo, AUCτ
[1] = human, in vivo
CYP3A4 [2] = assay: Estimated intestinal luminal concentration of vonoprazan compared with the CYP3A4 IC50; settings: vonoprazan 20 mg orally administered
[3] = Serum gastrin, pepsinogen I and II levels pre-dose and 24 h after 7 days of administration; assay type: in vivo, human; settings: co-administered with atorvastatin for 7 days; compared to the baseline
Excerpt: Error bars represent standard errors. The increase of serum levels in each intervention was compared to the intervention R. P-values were adjusted by Tukey-Kramer method; *p < 0.05; **p < 0.001.

CYP3A4 [4] = tested on: CYP3A4; design: method as in Nishihara et al., 2019; HK inno.N Corp; settings: in vitro; ref Nishihara et al., 2019; HK inno.N Corp; cited from earlier work
[5] = Safety and tolerability: treatment-emergent adverse events by intervention; assay type: in vivo, human; settings: for number of TEAEs (all) / number of subjects with TEAEs / percentage of subjects with TEAEs: per intervention (R1 31, R2 28, T 30, V 29 subjects), T and V co-administered with atorvastatin; for subjects who discontinued the study due to AEs: neutropenia in intervention T, blood creatine phosphokinase increased in intervention R
Experimental: Safety was assessed based on symptom reports, physical examinations, vital signs, 12-lead ECGs, and clinical laboratory tests (hematology, clinical chemistry, and urinalysis).

CYP3A4 [6] = assay: CYP3A4 inhibition in vitro (literature values); assay type: biochemical; settings: ref Nishihara et al., 2019, HK inno.N Corp
OATP1B1 = settings: cited from earlier work
[7] = when absorbed through the intestine; ref Lennernäs, 2003; cited from earlier work
[8] = Steady-state plasma pharmacokinetics of atorvastatin, 2-hydroxyatorvastatin and atorvastatin lactone after atorvastatin 40 mg once daily for 7 days, alone or co-administered with tegoprazan 50 mg or vonoprazan 20 mg; settings: for Css,max / Tss,max / AUCτ: N = 28; for Css,max / AUCτ / Metabolic ratio (AUCmetabolite/AUCatorvastatin): mean ± SD; for Tss,max: plasma, median (minimum-maximum); for Css,max, GMR (90% CI): ratio of atorvastatin co-administered with tegoprazan to administered alone
[9] = TEAE, serum gastrin greater than 200 ng/L, intervention arm = label, co-administered with atorvastatin 40 mg, 7 days
[10] = TEAE, intervention arm = label, P-CAB arms co-administered with atorvastatin 40 mg, 7 days
[11] = Atorvastatin alone (N = 28 for each intervention), comparison with tegoprazan
[12] = Atorvastatin alone (N = 28 for each intervention), comparison with vonoprazan
[13] = Reference 1: first intervention, atorvastatin 40 mg alone 7 days
[14] = Reference 2: second intervention, atorvastatin 40 mg alone 7 days
[15] = atorvastatin 40 mg co-administered with tegoprazan 50 mg 7 days
[16] = atorvastatin 40 mg co-administered with vonoprazan 20 mg 7 days
[17] = atorvastatin co-administered with vonoprazan compared to atorvastatin alone

Structure (SMILES): CC(C)c1c(C(=O)Nc2ccccc2)c(-c2ccccc2)c(-c2ccc(F)cc2)n1CC[C@@H](O)C[C@@H](O)CC(=O)O [Atorvastatin, atorvastatin]
fraction of orally administered dose lost in the gut [7]: 76% | Css,max, geometric least squares mean [8, 11]: 32.4 µg/L | Css,max, geometric least squares mean [8, 12]: 32.4 µg/L | Css,max [8, 13]: 37.21 ± 19.65 µg/L | Tss,max ([8]; Reference 1: first intervention, atorvastatin 40 mg alone once daily 7 days): 0.75 (0.50–6.00) h | Css,max [8, 14]: 37.37 ± 22.81 µg/L | Tss,max ([8]; Reference 2: second intervention, atorvastatin 40 mg alone once daily 7 days): 0.75 (0.50–3.00) h | Css,max, geometric least squares mean ([8]; With Tegoprazan (N = 28)): 35.4 µg/L | Css,max, geometric least squares mean ([8]; With Vonoprazan (N = 28)): 37.9 µg/L | Css,max [8, 15]: 40.75 ± 21.52 µg/L | Tss,max ([8]; atorvastatin 40 mg co-administered with tegoprazan 50 mg once daily 7 days): 1.25 (0.50–3.00) h | Css,max [8, 16]: 42.71 ± 25.76 µg/L | Tss,max ([8]; atorvastatin 40 mg co-administered with vonoprazan 20 mg once daily 7 days): 1.50 (0.50–4.00) h | Increase of Css,max ([8]; atorvastatin co-administered with tegoprazan, not statistically significant): 9% | Increase of Css,max [8, 17]: 17% | Css,max, GMR (90% CI) [8]: 1.09 (0.97–1.23) | within-subject CV of Css,max ([8]; this study, multiple doses for 7 days (data not shown)): 33.6% | subjects who discontinued the study due to AEs [5]: 1

Structure (SMILES): CC(C)c1c(C(=O)Nc2ccccc2O)c(-c2ccccc2)c(-c2ccc(F)cc2)n1CCC(O)CC(O)CC(=O)O (centres unmarked) [2-hydroxyatorvastatin]
AUCτ, geometric least squares mean [8, 11]: 137.9 µg·h/L | Css,max, geometric least squares mean [8, 11]: 22.5 µg/L | AUCτ, geometric least squares mean [8, 12]: 138.2 µg·h/L | Css,max, geometric least squares mean [8, 12]: 22.7 µg/L | AUCτ [8, 13]: 152.04 ± 70.25 µg·h/L | Css,max [8, 13]: 24.95 ± 11.77 µg/L | Metabolic ratio (AUCmetabolite/AUCatorvastatin) [8, 13]: 1.27 ± 0.52 | AUCτ [8, 14]: 144.35 ± 58.71 µg·h/L | Css,max [8, 14]: 25.72 ± 17.15 µg/L | Metabolic ratio (AUCmetabolite/AUCatorvastatin) [8, 14]: 1.32 ± 0.55 | AUCτ, geometric least squares mean ([8]; With Tegoprazan (N = 28)): 144.8 µg·h/L | Css,max, geometric least squares mean ([8]; With Tegoprazan (N = 28)): 23.8 µg/L | AUCτ, geometric least squares mean ([8]; With Vonoprazan (N = 28)): 125.1 µg·h/L | Css,max, geometric least squares mean ([8]; With Vonoprazan (N = 28)): 15.91 µg/L | AUCτ [8, 15]: 156.46 ± 67.69 µg·h/L | Css,max [8, 15]: 26.34 ± 12.64 µg/L | Metabolic ratio (AUCmetabolite/AUCatorvastatin) [8, 15]: 1.31 ± 0.47 | AUCτ [8, 16]: 135.57 ± 64.05 µg·h/L | Css,max [8, 16]: 18.19 ± 12.16 µg/L | Metabolic ratio (AUCmetabolite/AUCatorvastatin) [8, 16]: 0.90 ± 0.32 | Decrease of AUCτ [8, 17]: 9% | Decrease of Css,max [8, 17]: 30% | Css,max, GMR (90% CI) [8]: 1.06 (0.95-1.17)

Structure (SMILES): CC(C)c1c(C(=O)Nc2ccccc2)c(-c2ccccc2)c(-c2ccc(F)cc2)n1CC[C@@H](O)C[C@@H](O)CC(=O)O [Reference 2, atorvastatin]
Anaemia: number of events [5, 10]: 1 | Anaemia: number of subjects [5, 10]: 1 | Anaemia: percentage of subjects [5, 10]: 3.6% | Blood bilirubin increased: number of events [5, 10]: 2 | Blood bilirubin increased: number of subjects [5, 10]: 2 | Blood bilirubin increased: percentage of subjects [5, 10]: 7.1% | Pyuria: number of events [5, 10]: 1 | Pyuria: number of subjects [5, 10]: 1 | Pyuria: percentage of subjects [5, 10]: 3.6% | number of TEAEs (all) ([5]; listed as intervention R2): 8 | number of subjects with TEAEs ([5]; listed as intervention R2): 7

Structure (SMILES): CC(C)c1c(C(=O)Nc2ccccc2)c(-c2ccccc2)c(-c2ccc(F)cc2)n1CC[C@@H](O)C[C@@H](O)CC(=O)O [Reference 1, atorvastatin]
Anaemia: number of events [5, 10]: 1 | Anaemia: number of subjects [5, 10]: 1 | Anaemia: percentage of subjects [5, 10]: 3.2% | Blood bilirubin increased: number of events [5, 10]: 1 | Blood bilirubin increased: number of subjects [5, 10]: 1 | Blood bilirubin increased: percentage of subjects [5, 10]: 3.2% | Ocular discomfort: number of events [5, 10]: 1 | Ocular discomfort: number of subjects [5, 10]: 1 | Ocular discomfort: percentage of subjects [5, 10]: 3.2% | Pyuria: number of events [5, 10]: 1 | Pyuria: number of subjects [5, 10]: 1 | Pyuria: percentage of subjects [5, 10]: 3.2% | number of TEAEs (all) [5]: Seven | number of subjects with TEAEs [5]: 6 | percentage of subjects with TEAEs [5]: 19.4%

Further lines, with some results ahead:

AUC (clinical; 40 mg): 61.1 ± 30.2 ng·h/mL | AUC (clinical; geometric least squares mean): 52.1 ng·h/mL | AUCτ, geometric least squares mean [1]: 67.3 µg·h/L | AUCτ ([1]; 40 mg): 57.36 ± 28.51 µg·h/L
Structure (SMILES): CC(C)c1c(C(=O)Nc2ccccc2)c(-c2ccccc2)c(-c2ccc(F)cc2)n1CC[C@@H]1C[C@@H](O)CC(=O)O1 [Atorvastatin lactone, atorvastatin lactone]

Structure (SMILES): CNCc1cc(-c2ccccc2F)n(S(=O)(=O)c2cccnc2)c1 [Vonoprazan, vonoprazan]
increase in serum pepsinogen I [3]: […] | increase in serum pepsinogen II [3]: […] | IC50 (CYP3A4 [4]): […] | Hypergastrinaemia: number of subjects ([5]; TEAE, serum gastrin greater than 200 ng/L, intervention arm = label, P-CAB arms co-administered with atorvastatin 40 mg, 7 days): […] | Hypergastrinaemia: number of events [5, 9]: […] | Hypergastrinaemia: percentage of subjects [5, 9]: 20.7% | Blood bilirubin increased: number of events [5, 10]: 1 | Blood bilirubin increased: number of subjects [5, 10]: 1 | Blood bilirubin increased: percentage of subjects [5, 10]: […] | Dyspepsia: number of events [5, 10]: 2 | Dyspepsia: number of subjects [5, 10]: 2 | Dyspepsia: percentage of subjects [5, 10]: […] | Headache: number of events [5, 10]: 2 | Headache: number of subjects [5, 10]: 2 | Headache: percentage of subjects [5, 10]: […] | Neutrophil count decreased: number of events [5, 10]: 2 | Neutrophil count decreased: number of subjects [5, 10]: 2 | Neutrophil count decreased: percentage of subjects [5, 10]: […] | Pyuria: number of events [5, 10]: 2 | Pyuria: number of subjects [5, 10]: 2 | Pyuria: percentage of subjects [5, 10]: […] | occurrence of hypergastrinemia (serum gastrin level greater than 200 ng/L) ([5]; across the interventions): only occurred when atorvastatin was co-administered with vonoprazan | number of TEAEs (all) [5]: 17 | number of subjects with TEAEs [5]: […] | percentage of subjects with TEAEs [5]: 51.7% | inhibition of OATP1B1 (OATP1B1; in vitro study, ref Pharmaceuticals and Medical Devices Agency, 2014): did not inhibit OATP1B1

expected plasma concentration at clinical doses relative to the CYP3A4 IC50 (fold lower) (CYP3A4 [6]): 25 fold
Structure (SMILES): Cc1nc2cc(C(=O)N(C)C)cc(O[C@H]3CCOc4cc(F)cc(F)c43)c2[nH]1 [Tegoprazan, tegoprazan]
increase in serum pepsinogen I [3]: 2.7 times | increase in serum pepsinogen II [3]: 2.2 times | increase of serum gastrin [3]: 1.2 times | IC50 (CYP3A4 [4]): > 30 µM | Blood bilirubin increased: number of events [5, 10]: 2 | Blood bilirubin increased: number of subjects [5, 10]: 2 | Blood bilirubin increased: percentage of subjects [5, 10]: 6.7% | Neutrophil count decreased: number of events [5, 10]: 1 | Neutrophil count decreased: number of subjects [5, 10]: 1 | Neutrophil count decreased: percentage of subjects [5, 10]: 3.3% | Ocular discomfort: number of events [5, 10]: 1 | Ocular discomfort: number of subjects [5, 10]: 1 | Ocular discomfort: percentage of subjects [5, 10]: 3.3% | Pyuria: number of events [5, 10]: 1 | Pyuria: number of subjects [5, 10]: 1 | Pyuria: percentage of subjects [5, 10]: 3.3% | subjects who discontinued the study due to AEs [5]: 1 | number of TEAEs (all) [5]: Ten | number of subjects with TEAEs [5]: 7 | percentage of subjects with TEAEs [5]: 23.3% | inhibitory activity on OATP1B1 (OATP1B1; in vitro / non-clinical study, ref HK inno.N Corp): showed the inhibitory activity on some OATP1B1 substrates; also recorded: showed various inhibitory activities
